US11661419B2, “Benzimidazole derivative compounds and uses thereof” (Pfizer Inc., priority 2019, dated 2023)

Assays:
[1] = target: Tropomyosin receptor kinase A (TRKA, NTRK1) (Homo sapiens (Human), UniProt P04629); assay: TRKA (NTRK1) enzyme Z'-LYTE assay; format: biochemical; settings: arithmetic mean of count n; test compound 1 uM, ATP 1 mM
Method: Tropomyosin Receptor Kinase a (TRKA) Activity, % Inhibition
TRKA, also known as neurotrophic tyrosine kinase receptor type 1 (NTKR1) activity was determined by measuring the effect of a test compound on the activity against the NTRK1 enzyme using the ThermoFisher Z'-LYTE Assay fluorescence-based coupled enzyme format (www.thermofisher.com/selectscreen). […] The resulting effect value for the tested compound was compared to the assay controls to determine the % inhibition (%).

[2] = system: IL-2 in activated CD4+ human T-cells; assay: IL-2 inhibition in supernatants from activated CD4+ human T-cells (cisbio HTRF); format: cell-based; settings: T-cell; geometric mean of count n; CD3/CD28-expanded human CD4+ T cells stimulated with ImmunoCult, 20 to 24 hrs
Method: IL-2-Inhibition Activity, IC50 (uM)
IL-2 inhibition activity in supernatants from activated CD4+ human T-cells was determined by measuring the effect of a test compound on the activity using the cisbio HTRF™ technology.
Human CD4+ T cells were activated with CD3/CD28 for 3 days and expanded for an additional 4-6 days (7 to 9 days total). On day 0, frozen CD4+ T cells were thawed, treated with CD3/CD28 Dynabeads, and incubated at 37° C./5% CO2. On day 3, the beads were removed, and the cells were diluted to 5×10^5 cells/cm^2, placed in G-Rex10 flask, and incubated at 37° C./5% CO2. On day 7 to day 9 the cells were removed from the G-Rex flasks, counted and diluted back to 1×10^6 cells/ml in standard tissue culture flask.
The expanded CD4+ T-cells were centrifuged at 300×g for 10 minutes and resuspended to 0.5 million cells per ml (30,000 cells/well). 60 μl of CD4+ T cells were added per well to a 384 well plate containing 0.1 μL of varying concentrations of test compound in DMSO. The plates were incubated for 15 min at 37° C./5% CO2. 20 μl of diluted ImmunoCult™ ([…] Technologies, 1:12.5 in T cell assay media) were added to all wells of the plate (1:50 final assay concentration). The plates were incubated for an additional 20 to 24 hrs at 37° C./5% CO2. The plates were centrifuged at 300×g for 10 minutes. 16 μL of supernatant was removed and combined with 4 μl of IL-2 HTRF Abs. (cisbio kit). Plates were incubated for 3 hours at RT and read with an EnVision plate reader at 665 nm and 615 nm wavelengths.

Chain of Tropomyosin receptor kinase A (TRKA, NTRK1) (P04629 33-796): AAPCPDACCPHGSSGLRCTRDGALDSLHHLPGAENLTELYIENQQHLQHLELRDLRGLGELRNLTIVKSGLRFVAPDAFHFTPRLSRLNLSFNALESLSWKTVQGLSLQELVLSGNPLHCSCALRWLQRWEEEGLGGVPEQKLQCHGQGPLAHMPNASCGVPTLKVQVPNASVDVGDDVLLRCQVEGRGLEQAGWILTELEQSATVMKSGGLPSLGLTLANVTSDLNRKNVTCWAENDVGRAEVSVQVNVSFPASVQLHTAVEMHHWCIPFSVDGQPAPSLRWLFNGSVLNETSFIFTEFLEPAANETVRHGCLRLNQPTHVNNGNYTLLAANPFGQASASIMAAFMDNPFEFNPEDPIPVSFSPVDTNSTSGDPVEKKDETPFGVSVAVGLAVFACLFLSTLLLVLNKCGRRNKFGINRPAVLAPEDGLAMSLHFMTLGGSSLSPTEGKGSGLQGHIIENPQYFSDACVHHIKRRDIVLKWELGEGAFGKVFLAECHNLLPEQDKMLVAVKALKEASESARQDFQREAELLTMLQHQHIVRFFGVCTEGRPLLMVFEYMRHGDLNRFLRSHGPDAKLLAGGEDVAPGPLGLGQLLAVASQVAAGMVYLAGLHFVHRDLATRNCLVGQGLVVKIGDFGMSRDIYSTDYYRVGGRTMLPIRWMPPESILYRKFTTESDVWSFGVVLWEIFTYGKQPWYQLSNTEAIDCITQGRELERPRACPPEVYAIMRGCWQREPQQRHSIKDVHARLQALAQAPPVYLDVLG

| Compound | inhibition at 1 µM [1] [%] | IC50 [2] [nM] |
| --- | --- | --- |
| COCc1cc(N(C)C(=O)[C@H](C)N2CCOCC2)cc2nc(-c3n[nH]c4c3C[C@@H]3C[C@]3(C)C4)[nH]c12 [Example 42, (S)—N-(7-(methoxymethyl)-2-((4aS,5aR)-5a-methyl-1,4,4a,5,5a,6-hexahydrocyclopropa[f]indazol-3-yl)-1H-benzo[d]imidazol-5-yl)-N-methyl-2-morpholinopropanamide] | 98 | 200 |
| C[C@@H](C(=O)N(C)c1cc(CO)c2[nH]c(-c3n[nH]c4c3C[C@@H]3C[C@]3(C)C4)nc2c1)N1CCOCC1 [Example 45, (S)—N-(7-(hydroxymethyl)-2-((4aS,5aR)-5a-methyl-1,4,4a,5,5a,6-hexahydrocyclopropa[f]indazol-3-yl)-1H-benzo[d]imidazol-5-yl)-N-methyl-2-morpholinopropanamide] | 97 | 365 |
| C[C@@H](C(=O)N(C)c1cc(C(F)F)c2[nH]c(-c3n[nH]c4c3C[C@@H]3C[C@]3(C)C4)nc2c1)N1CCOCC1 [Example 48, (S)—N-(7-(difluoromethyl)-2-((4aS,5aR)-5a-methyl-1,4,4a,5,5a,6-hexahydrocyclopropa[f]indazol-3-yl)-1H-benzo[d]imidazol-5-yl)-N-methyl-2-morpholinopropanamide] | 95 | 207 |
| COCCOc1cc2[nH]c(-c3n[nH]c4c3C[C@@H]3C[C@]3(C)C4)nc2cc1N(C)C(=O)[C@H](C)N1CCOCC1 [Example 49, (S)—N-(6-(2-methoxyethoxy)-2-((4aS,5aR)-5a-methyl-1,4,4a,5,5a,6-hexahydrocyclopropa[f]indazol-3-yl)-1H-benzo[d]imidazol-5-yl)-N-methyl-2-morpholinopropanamide] | 98 | 100 |
| Cc1cc(N(C)C(=O)[C@H](C)N2CCOCC2)cc2nc(-c3n[nH]c4c3C[C@@H]3C(F)(F)[C@]3(C)C4)[nH]c12 [Example 51, (S)—N-(2-((4aS,5aR)-5,5-difluoro-5a-methyl-1,4,4a,5,5a,6-hexahydrocyclopropa[f]indazol-3-yl)-7-methyl-1H-benzo[d]imidazol-5-yl)-N-methyl-2-morpholinopropanamide] | 97 | 19 |

Further lines, results first:

| inhibition at 1 µM [1] [%] | IC50 [2] [nM] | Compound |
| --- | --- | --- |
| 96 | 171 | C[C@@H](C(=O)N(C)c1cc(Cl)c2[nH]c(-c3n[nH]c4c3C[C@@H]3C[C@]3(C)C4)nc2c1)N1CCOCC1 [Example 43, (S)—N-(7-chloro-2-((4aS,5aR)-5a-methyl-1,4,4a,5,5a,6-hexahydrocyclopropa[f]indazol-3-yl)-1H-benzo[d]imidazol-5-yl)-N-methyl-2-morpholinopropanamide] |
| 94 | 219 | CCc1cc(N(C)C(=O)[C@H](C)N2CCOCC2)cc2nc(-c3n[nH]c4c3C[C@@H]3C[C@]3(C)C4)[nH]c12 [Example 44, (S)—N-(7-ethyl-2-((4aS,5aR)-5a-methyl-1,4,4a,5,5a,6-hexahydrocyclopropa[f]indazol-3-yl)-1H-benzo[d]imidazol-5-yl)-N-methyl-2-morpholinopropanamide] |
| 98 | 161 | Cc1c(F)c(N(C)C(=O)[C@H](C)N2CCOCC2)cc2nc(-c3n[nH]c4c3C[C@@H]3C[C@]3(C)C4)[nH]c12 [Example 47, (S)—N-(6-fluoro-7-methyl-2-((4aS,5aR)-5a-methyl-1,4,4a,5,5a,6-hexahydrocyclopropa[f]indazol-3-yl)-1H-benzo[d]imidazol-5-yl)-N-methyl-2-morpholinopropanamide] |
| 97 | 126 | Cc1cc(N(C)C(=O)[C@H](C)N2CCOCC2)cc2nc(-c3n[nH]c4c3C[C@@H]3C[C@]3(C)C4)[nH]c12 [Example 50, (S)—N-methyl-N-(7-methyl-2-((4aS,5aR)-5a-methyl-1,4,4a,5,5a,6-hexahydrocyclopropa[f]indazol-3-yl)-1H-benzo[d]imidazol-5-yl)-2-morpholinopropanamide] |
